Data taken from paper PMC9854762, “Antibiofilm and Anti-Quorum-Sensing Activities of Novel Pyrazole and Pyrazolo[1,5-a]pyrimidine Derivatives as Carbonic Anhydrase I and II Inhibitors: Design, Synthesis, Radiosterilization, and Molecular Docking Studies” (Antibiotics, 2023).
In brackets after ≈: the same amount, converted by molar mass.

Columns and labels:
C. violaceum CV026 = assay: Quorum-sensing inhibition bioassay on Soft Top agar; type: cell-based, Chromobacterium violaceum; conditions: CV026 biosensor strain, sub-MIC
Method: (§1) The anti-QS potential of the tested compounds was explored as described. Briefly, an overnight bacterial suspension of the indicator organism C. violaceum CV026 was prepared in a concentration of 10^6 CFU/mL, and an aliquot of 200 µL was seeded in 5 mm of Soft Top agar (1.3 g agar, 2.0 g tryptone, 1.0 g NaCl, and 200 mL deionized water), supplemented with 20 µL of 0.25 µg/mL C6-HSL (N-hexanoyl-L-homoserine lactone), added as an exogenous AHL source. Wells were cut in the center of the plate after incubation for 30 min and then filled with 50 µL of sub-MICs of each most-active pyrazole hybrid. DMSO was used as a negative control. The plates were incubated at 28 °C for 48 h. Inhibition of violacein production by the indicator strain around the well, indicated by the presence of a white circle surrounded by a purple halo, was considered as positive for QS interference. For further investigation to determine the anti-QS activity for the pyrazole against the biofilm-forming bacterial isolates, an in vitro screening was performed. This was carried out by inoculation of 200 µL from an O/N CV026 culture onto plates of Soft Top agar. Wells of 8 mm diameter were separately made and filled with 90 µL of each biofilm-forming bacterial isolate (10^6 CFU/mL), plus 10 µL of each active pyrazole derivative (sub-MICs). Wells containing the bacterial isolates without treatment were used as controls. The signal diffusion zone diameter produced during the bacterial growth was measured in the presence of pyrazole and pyrazolo[1,5-a]pyrimidine derivatives and compared with the zone diameter of the violacein production by CV026.

S. aureus DH-432 [1] = assay: Broth microdilution MIC/MBC; type: cell-based, Staphylococcus aureus; conditions: for MIC: Staphylococcus aureus, DH432, 24 h, read-out: MIC (Mean ± SEM); for MBC/MIC: value in brackets
Method: (§2) The broth microdilution method was taken as a basis to detect the MICs of pyrazole compounds against tested clinical isolates, according to the Clinical Laboratory and Standards Institute guidelines. The broth cultures were used to prepare the bacterial inoculums, and the suspensions were adjusted to the standard 0.5 McFarland turbidity. Stock solutions of the synthesized pyrazoles were prepared in pure DMSO and further serially diluted with TS broth in the concentration range from 128 µg/mL to 0.0625 µg/mL. A well containing noninoculated TS broth, free of any antimicrobial agents, was also included to ensure the medium sterility, while Erythromycin and Amikacin served as positive controls. Bacterial growth was determined by adding 20 µL of 0.5% TTC (2,3,5-triphenyltetrazolium chloride) aqueous solution. […] All experiments were repeated three times. The bactericidal effect from each concentration of the pyrazole and pyrazolo[1,5-a]pyrimidine derivatives showing growth inhibition was further studied. For this study, a loopful of 5 µL was taken from each no-visible growth tube and streaked onto plates of TS agar.

S. pyogenes DH-3467 [2] = assay: Broth microdilution MIC/MBC; type: cell-based, Streptococcus pyogenes; conditions: for MIC: Streptococcus pyogenes, DH3467, 24 h, read-out: MIC (Mean ± SEM); for MBC/MIC: value in brackets
Method: as §2

S. aureus DH-432 [3] = assay: Agar well-diffusion assay; type: cell-based; conditions: Staphylococcus aureus, DH432; S. aureus DH-432; 50 µL of 10 mM per well; read-out: Diameter of Inhibition Zones (AZOI)
Method: (§3) The synthesized compounds were initially screened for their in vitro antibacterial activity against the different Gram-positive and Gram-negative bacteria, tested using the agar well-diffusion assay. The turbidity of the bacterial suspensions was established to the 0.5 McFarland turbidity standard. The activity was performed on TS agar plates. The bacteria were spread on the surface of the agar plates, and 10 mm wells were screwed into the agar plates. The assay was performed under aseptic conditions. An aliquot of 50 µL of each tested compound (10 mM) was added to the wells, and the plates were incubated overnight at 37 °C. Both Erythromycin and Amikacin antibiotic disks were used as positive control, while DMSO solvent was used as a negative control in this study. The diameters of inhibition zones were measured and recorded in mm. A comparative study of the synthesized compounds was determined. The experiment was performed in triplicates.

S. pyogenes DH-3467 [4] = assay: Agar well-diffusion assay; type: cell-based; conditions: Streptococcus pyogenes, DH3467; S. pyogenes DH-3467; 50 µL of 10 mM per well; read-out: Diameter of Inhibition Zones (AZOI)
Method: as §3

A. baumannii DH-243 = assay: Agar well-diffusion assay; type: cell-based; conditions: Acinetobacter baumannii, DH243; A. baumannii DH-243; 50 µL of 10 mM per well; read-out: Diameter of Inhibition Zones (AZOI)
Method: as §3

E. faecalis DH-5478 [5] = assay: Agar well-diffusion assay; type: cell-based; conditions: Enterococcus faecalis, DH5478; E. faecalis DH-5478; 50 µL of 10 mM per well; read-out: Diameter of Inhibition Zones (AZOI)
Method: as §3

E. coli DH-5987 = assay: Agar well-diffusion assay; type: cell-based; conditions: Escherichia coli, DH5987, 50 µL of 10 mM per well, read-out: Diameter of Inhibition Zones (AZOI)
Method: as §3

hCA-I = biological target: T1, hCA-I (Homo sapiens, UniProt P00915); assay: Carbonic anhydrase isoenzyme inhibition assay; type: biochemical; conditions: for Ki: Lineweaver–Burk graphs
T1 construct: from tissue; host or cells: human erythrocytes (hemolysate)
T1 sequence (P00915 whole entry): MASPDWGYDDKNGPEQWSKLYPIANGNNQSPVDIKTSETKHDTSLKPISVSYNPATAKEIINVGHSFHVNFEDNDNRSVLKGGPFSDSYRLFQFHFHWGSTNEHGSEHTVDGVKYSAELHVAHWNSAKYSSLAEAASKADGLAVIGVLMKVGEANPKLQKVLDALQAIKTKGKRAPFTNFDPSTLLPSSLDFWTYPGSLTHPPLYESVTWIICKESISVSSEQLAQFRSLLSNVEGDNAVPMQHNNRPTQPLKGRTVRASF
Method: (§4) The purification of both human cytosolic CA isoforms was carried out as previously described, using a simple one-step procedure of Sepharose-4B-L-tyrosine-sulfanilamide affinity chromatography. […] The carbonic anhydrase isoenzymes’ activities were determined in accordance with the previous study. […] For the designation of the inhibition efficacy of each novel pyrazole and for the pyrazolo[1,5-a]pyrimidine derivatives on both hCA isoenzymes, an activity (%) graph was drawn. The IC50 values were obtained from activity (%) versus compounds plots. The Ki values were calculated using three concentrations for each derivative.

hCA-II = biological target: T2, hCA-II (Homo sapiens, UniProt P00918); assay: Carbonic anhydrase isoenzyme inhibition assay; type: biochemical; conditions: for Ki: Lineweaver–Burk graphs
T2 construct: from tissue; host or cells: human erythrocytes (hemolysate)
Method: as §4

P. aeruginosa = assay: Anti-QS activity via signal inhibition, CV026 as indicator; type: cell-based; conditions: P. aeruginosa 10^6 CFU/mL; sub-MICs; control 11.2 mm
Method: as §1

S. aureus = assay: as above; type: cell-based; conditions: S. aureus 10^6 CFU/mL; sub-MICs; control 12.0 mm
Method: as §1

E. faecalis DH-5478 [6] = assay: Broth microdilution MIC/MBC; type: cell-based, Enterococcus faecalis; conditions: for MIC: Enterococcus faecalis, DH5478, 24 h, read-out: MIC (Mean ± SEM); for MBC/MIC: value in brackets
Method: as §2

P. aeruginosa DH-5698 = assay: Broth microdilution MIC/MBC; type: cell-based, Pseudomonus aeruginosa; conditions: for MIC: Pseudomonas aeruginosa, DH5698, 24 h, read-out: MIC (Mean ± SEM); for MBC/MIC: value in brackets
Method: as §2

Compound | Concentration at which anti-QS activity (visible halo zone) was observed (C. violaceum CV026) [µg/mL] | MIC (S. aureus DH-432 [1]) [µg/mL] | MBC/MIC (S. aureus DH-432 [1]) | MIC (S. pyogenes DH-3467 [2]) [µg/mL] | MBC/MIC (S. pyogenes DH-3467 [2]) | zone of inhibition at 10000 µM (S. aureus DH-432 [3]) [mm] | zone of inhibition at 10000 µM (S. pyogenes DH-3467 [4]) [mm] | zone of inhibition at 10000 µM (A. baumannii DH-243) [mm] | zone of inhibition at 10000 µM (E. faecalis DH-5478 [5]) [mm] | zone of inhibition at 10000 µM (E. coli DH-5987) [mm] | IC50 (hCA-I) [nM] | Ki (hCA-I) [nM] | IC50 (hCA-II) [nM] | Ki (hCA-II) [nM] | QS signal diffusion zone (P. aeruginosa) [mm] | QS signal diffusion zone (S. aureus) [mm] | MIC (E. faecalis DH-5478 [6]) [µg/mL] | MBC/MIC (E. faecalis DH-5478 [6]) | MIC (P. aeruginosa DH-5698) [µg/mL] | MBC/MIC (P. aeruginosa DH-5698) | other results
CCOC(=O)c1ccc(N=Nc2c(N=Cc3ccc(N(C)C)cc3)n[nH]c2N)cc1 [Compound 5a, Ethyl 4-((5-amino-3-((4-(dimethylamino)benzylidene)amino)-1H-pyrazol-4-yl)diazenyl)benzoate] | 0.187 | 0.25 (≈ 0.617 µM) | 0.5 | 0.5 ± 0.1 (≈ 1.23 µM) | 0.5 | 28.6 | 28.9 | 28 | 28.2 | 29.9 | 138 | 176 | 161 | 144 | 9.8 | 7.3 | 0.5 ± 0.2 (≈ 1.23 µM) | 0.5 | 0.5 ± 0.1 (≈ 1.23 µM) | 0.5 | MIC (Mean ± SEM) (S. aureus DH-432 [1]; 24 h): 0.25 ± 0.2 µg/mL (≈ 0.617 µM)
CCOC(=O)c1ccc(N=Nc2c(N)nn3c(N)c(C#N)c(-c4ccc(N(C)C)cc4)nc23)cc1 [Compound 9a, Ethyl-4-((2,7-diamino-6-cyano-5-(4-(dimethylamino)phenyl)pyrazolo[1,5-a]pyrimidin-3-yl)diazenyl)benzoate] | 0.187 | 0.25 ± 0.2 (≈ 0.532 µM) | 0.5 | 0.25 ± 0.2 (≈ 0.532 µM) | 0.5 | 29.1 | 29.3 | 28.4 | 28.7 | 30.4 | 123 | 102 | 142 | 136 | 9.5 | 6.9 | 0.5 ± 0.1 (≈ 1.06 µM) | 0.5 | 0.375 ± 0.3 (≈ 0.799 µM) | 0.5 | –
CCOC(=O)c1ccc(N=Nc2c(N)nn3c(C)cc(C)nc23)cc1 [Compound 6, ethyl-4-((2-amino-5,7-dimethylpyrazolo[1,5-a]pyrimidin-3-yl)diazenyl)benzoate] | 0.125 | 0.187 ± 0.1 (≈ 0.553 µM) | 0.5 | 0.25 ± 0.3 (≈ 0.739 µM) | 0.5 | 29.5 | 30.2 | 28.8 | 29.5 | 31 | 169 | 153 | 130 | 146 | 8.7 | 6.5 | 0.375 ± 0.2 (≈ 1.11 µM) | 0.5 | 0.375 ± 0.4 (≈ 1.11 µM) | 0.5 | –
CCOC(=O)c1ccc(N=Nc2c(N)n[nH]c2N)cc1 [Compound 3a, Ethyl 4-((3,5-diamino-1H-pyrazol-4-yl)diazenyl)benzoate] | 0.0625 | 0.125 ± 0.3 (≈ 0.456 µM) | 0.5 | 0.125 ± 0.3 (≈ 0.456 µM) | 0.5 | 31.1 | 31.5 | 29.3 | 30.6 | 32 | 92.3 | 88.8 | 73.2 | 91.8 | 7.8 | 5.0 | 0.125 ± 0.1 (≈ 0.456 µM) | 0.5 | 0.125 ± 0.2 (≈ 0.456 µM) | 0.5 | –
CCOC(=O)c1ccc(N=Nc2c(N)nn3c(O)c(C#N)c(-c4ccc(N(C)C)cc4)nc23)cc1 [Compound 10a, Ethyl-4-((2-amino-6-cyano-5-(4-(dimethylamino)phenyl)-7-hydroxypyrazolo[1,5-a]pyrimidin-3-yl)diazenyl)benzoate] | 0.0625 | 0.125 ± 0.2 (≈ 0.266 µM) | 0.5 | 0.187 ± 0.2 (≈ 0.397 µM) | 0.5 | 30.6 | 30.7 | 29.1 | 29.8 | 31.5 | 153 | 144 | 122 | 139 | 8.0 | 6.2 | 0.187 ± 0.1 (≈ 0.397 µM) | 0.5 | 0.187 ± 0.1 (≈ 0.397 µM) | 0.5 | –
